The values below come from a melting point compilation (Tetko et al.; mined from patent text by program, amines drawn as free bases though some values may be those of a salt).

By melting point is commonly meant the temperature, or range, at which the solid turns liquid. On to `CCc1nc(C)cn1-c1cc2c(cc1Cl)[nH]c(=O)c1n[nH]c(=O)n12`, for which the melting point is 273 to 275 °C. The same measure for `NC(=O)N1CC(Oc2ccc(C(F)(F)F)cc2)C1`: 176 to 178 °C. The molecule `O=C1CN2Cc3c(ccc(OCC(=O)N(CCO)C4CCCCC4)c3Cl)N=C2N1` returned a melting point of 237 to 239 °C. `CN1C(=O)C2(COc3cc4c(cc32)OCCO4)c2c(Oc3ccc(C(F)(F)F)cc3)cccc21` (centres undefined) registered a melting point of 198 to 201 °C. The value for `O=C1CCC(N2Cc3c(OCc4cn5ccccc5n4)cccc3C2=O)C(=O)N1` (centres undefined) was 222 to 224 °C; that for `Cc1c(NCC2CCCCO2)cc2oc(=O)[nH]c2c1F` (centres undefined) was 166 °C. The same measure for `CCC(=O)c1cc2ccccc2s1`: 79 to 81 °C; for `CCC(CC)c1ccc(Cl)c2nc(Nc3c(C)cc(Cl)cc3OC)n(CC(=O)OC(C)C)c12`: 205 to 207 °C. `CN(C)C(=O)NCc1cccc2c1C(=O)N(C1CCC(=O)NC1=O)C2=O` (centres undefined) yielded a melting point of 143 to 145 °C. The molecule `FC(F)(F)c1cnc(CNC(=S)c2ccccc2Cl)c(Cl)c1` came in with a melting point of 102 to 103 °C.

Molecule `COc1ccc(Cc2nc(C(C)=O)c[nH]2)cc1` came in with a melting point of 147 to 148 °C. The same measure for `CCCc1[nH]c2ccc(OC)cc2c1/C=C/C(=O)c1ccncc1`: 221 to 224 °C; for `Cc1nc(N)c2nc(CONC(C)C)n(CCCCNC(=O)c3ccccc3)c2c1C`: 161 to 162 °C; for `CCCCCCCCCCCCCCCO/N=C(\CCCCCCCCCCCCCCC)CC(=O)O`: 65 to 67 °C.

As for `Cc1cc(CC(=O)NCc2cccc3c2C(=O)N(C2CCC(=O)NC2=O)C3=O)on1` (centres undefined), the melting point fell in the range of 179 to 181 °C. The molecule `COc1ccc(-c2ccc(C(=O)Nc3ccc4nc(CN5CCCC5)ccc4c3)cc2)cc1` yielded a melting point of 197 to 199 °C. As to `O=C(COC(=O)CCCc1ccc(N(CCCl)CCCl)cc1)NCCCC(O)(P(=O)(O)O)P(=O)(O)O`, the melting point is above 260 °C. In turn, `O=C1CCC(c2c[nH]c3cccc(F)c23)CC1` gave a melting point of 104 to 106 °C. For `Cc1ccc2nc(-c3ccc([N+](=O)[O-])cc3)c(CNC(=O)CC(C)C)n2c1`, the melting point is 221 to 222 °C. The same measure for `CC(C)(C)c1cc(-c2nnc(NC#N)s2)cc(C(C)(C)C)c1O`: above 250 °C. The value for `O=c1[nH]cccc1Cc1cccc(F)c1` was 110 °C; that for `CCOC(=O)c1nnc(N(C)C)n1C` was 52 to 53 °C; that for `COc1cc(-c2cncn2-c2ccc(S(C)(=O)=O)cc2)ccc1C` was 174 to 175 °C. As to `CCn1nc(C)c2c1C1=NCCN1C(C)=N2`, the melting point is 168 to 170 °C. The same measure for `Cc1nnc(-c2ccc3occ(-c4ccc(N(C)C)cc4)c3c2)o1`: 205 to 206 °C; for `Clc1ccc2nc(-c3ccc(Cl)s3)cn2n1`: 226 to 230 °C; for `N#Cc1cn(CCl)cc1-c1cccc(Cl)c1Cl`: 132 to 133 °C. `COC(=O)C1C=CCN2C(=O)C(C)(CCO)C(=O)N12` (centres undefined) had a melting point of 97 to 99 °C. Regarding `CCCCCCCCCCC(=O)C(=O)N[C@@H](CCC(=O)O)C(=O)O`, the melting point lay in the range of 97 to 98 °C.

With `COc1nc(SC)nc(OC)c1C1CC(=O)C=C(O)C1` (centres undefined), the melting point was in the range of 195 to 200 °C. The value for `Cc1cccc(C)c1NC(=O)NC1(c2ccccc2)CCCC1` was 227 to 229 °C; that for `CN(O)C(=O)CCc1cc(-c2ccc(Cl)cc2)n(-c2ccccc2)n1` was 155 to 156 °C. `CCCc1c(OCC2Cc3c(ccc(C(C)=O)c3O)O2)ccc(C(C)=O)c1O` (centres undefined) registered a melting point of 104 to 106 °C.

`Cc1cc(-c2ccc(C(F)(F)F)nc2)cc(-c2cccc(-c3cccc(S(=O)(=O)NC(C)(C)C)c3)n2)n1` came in with a melting point of 187 to 188 °C.

For the molecule `CNC(=O)c1ccccc1Nc1nc(Nc2ccc3c(c2)N(C)C(=O)CCC3)ncc1Cl`, the melting point lay in the range of 292 to 294 °C. The value for `CN1CCCN(c2ccc(/C=C/c3cc(/C=C/c4ccc5cc[nH]c5c4)[nH]n3)c(Br)c2)CC1` was 132 to 136 °C; that for `CCOC(=O)C1N=C(c2ccccc2)c2ccccc2NC1=O` (centres undefined) was 226 °C; that for `N#Cc1cnn2c(C(F)(F)F)cc(-c3cccc(C(F)(F)F)c3)nc12` was 192 °C. The same measure for `Cc1cc(C)n(C(=N)NC(=S)Nc2cccnc2)n1`: 132 °C. The value for `CS(=O)(=O)c1snc(OCC#CI)c1C#N` was 191 to 192 °C; that for `Cc1nccn1-c1ccc([N+](=O)[O-])cc1` was 135 to 137 °C; that for `CCc1nc2c(N)nc3cc(CCCNC(C)=O)ccc3c2n1CC1CCOCC1` was 209 to 211 °C.

Turning to `COC(=O)c1cc(NC(=O)OC(C)(C)C)c([N+](=O)[O-])cc1I`, the melting point was found to be 126 °C.

As to `O=c1ccn(-c2ccccc2C(F)(F)F)nc1-c1ccnn1-c1ccccc1`, the melting point was in the range of 145 to 146 °C. The value for `COc1cc2c(cc1OC)OCC(=O)C2` was 126 to 130 °C. The value for `COc1ccc(C)cc1NC(=O)Nc1ccc(N2CCNCC2)cc1` was 140 °C; that for `Cc1cc2c(-c3cccc(C(F)(F)F)c3)nc(-c3ccc(C(F)(F)F)cc3)nc2s1` was 134 to 136 °C; that for `Nc1c(C(=O)c2cc(-c3ccccc3)no2)[nH]c2cc(Cl)ccc12` was 241 to 242 °C.

On to `CNC(=O)N1N=C(c2ccc([N+](=O)[O-])cc2)c2ccc(Cl)cc2CC1C` (centres undefined), for which the melting point is 224 to 226 °C. The same measure for `COCCN(C)C(=O)COc1cc(-c2ccc(C)cc2)nc2cccc(C(F)(F)F)c12`: 116 °C; for `COc1cc(C)nc(N(C)C(=O)NS(=O)(=O)c2c(Cl)cccc2Cl)n1`: 170 to 171 °C.

Molecule `C#CCOc1nc(Nc2cc(N)cc(C(=O)OC)c2)ncc1Br` yielded a melting point of 208 to 209 °C. The value for `Cc1ccc(S(=O)(=O)N[C@H](COS(=O)(=O)c2ccc(C)cc2)CC(C)C)cc1` was 99 to 101 °C. `CCCCc1nc2cc(C(=O)O)ccc2n1Cc1ccc(-c2ccccc2-c2nnn[nH]2)cc1` showed a melting point of 180 to 182 °C. The value for `Cc1cc(C)c(-c2csc3c(Cl)cc(C)nc23)c(C)c1` was 129 to 131 °C; that for `O=C(O)CC12CCC(=O)N1C(=O)CC2` was 177 to 180 °C; that for `N#Cc1ccc(C(=O)Nc2nc(-c3ccco3)c(C(=O)C3CCOCC3)s2)o1` was 222 to 223 °C.

For `COc1ccc(C(=O)Nc2ccccc2)cc1NCc1ccc(OC)c(OC)c1`, the melting point is 187 to 188 °C. The same measure for `CCCn1c(CCOC)nc2c(N)nc3cc(OCCCS(C)(=O)=O)ccc3c21`: 170 to 171 °C; for `Cc1cc(-c2ccc(S(C)(=O)=O)cc2)n(-c2ccc(F)cc2)c1Cl`: 151 to 154 °C; for `Cc1cccc(-c2nc3c(C)cccn3c2-c2ccnc(-c3ccc(CN4CCOCC4)cc3)c2)n1`: 122 °C. The same measure for `COCC1(C)Oc2ccc(C#N)cc2C2OC21` (centres undefined): 88 to 90 °C; for `CCOC(=O)C=C1CCC(n2nc(-c3c(-c4ccccc4)nn4ccccc34)ccc2=O)CC1` (centres undefined): 166 to 168 °C; for `CCCc1nc2c(N)nc3cc(OCc4ccc(C)cc4)ccc3c2n1CC(C)C`: 205 to 207 °C.

As for `COc1ccc(/C=C/S(=O)(=O)CS(=O)(=O)/C=C/c2ccc(OC)c([N+](=O)[O-])c2)cc1[N+](=O)[O-]`, the melting point lay within 263 to 265 °C. The value for `CCOC(=O)C(=O)Nc1c([N+](=O)[O-])sc2c(Cl)cc(Cl)cc12` was 177 to 180 °C; that for `COC(=O)C(C)(C)CCCOc1cc(C)c(OCc2ccccc2)c(C)c1C` was 67 to 68 °C; that for `CN(C)C=Nc1ncc(-c2ccc(C(F)(F)F)cc2)cc1C(F)(F)F` was 114 °C. The value for `CC(C)(C)N[C@@H]1Cc2cccc(O)c2C[C@H]1O` (relative stereo) was 97 to 102 °C; that for `CCN(CC)c1ccc2nc3c4ccccc4c(=Nc4nc5ccc(Cl)cc5s4)cc-3oc2c1` was 229 to 231 °C; that for `CC(C)c1nn(-c2ccc(C(F)(F)F)cn2)cc1CCCCOc1nn(-c2ccccc2)cc1CC(=O)O` was 119 to 120 °C. The same measure for `CSC1C(=O)Nc2c(C(=O)c3ccccc3F)cccc21` (centres undefined): 147 to 148 °C; for `O=C(O)CC1CCC(CCNS(=O)(=O)c2ccc(Br)cc2)CC1` (centres undefined): 124 to 126 °C; for `CCCCCCCC/C=C\CCCCCCCCOc1ccc(C(=O)O)o1`: 93 to 96 °C.

Turning to `CCOC(=NC(=O)c1ccc(Cl)cc1Cl)N1Cc2ccccc2-c2ccccc2C1`, the melting point is 158 to 159 °C.

`O=S1(=O)c2ccccc2C(c2ccccc2)N1CCCl` (centres undefined): the melting point came out at 121 °C.

On to `CN1C(=O)NC(=O)CC1c1ccccc1` (centres undefined), for which the melting point lay within 155 to 156 °C. Molecule `CCOC(=O)c1ccc(/C=C(\C)c2ccc3c(c2)C(C)(C)CCN3C)cc1` had a melting point of 100 to 101 °C. In the case of `Cc1sc2nc(SCCCN3CCN(c4ccc5ccccc5n4)CC3)[nH]c(=O)c2c1C`, the melting point was in the range of 225 to 226 °C. With `COc1cc(O)c(Br)c2cc(-c3ccc(O)cc3)oc12`, the melting point amounted to 170 °C.

`CC1=Nc2c3c(C)cnc-3ccn2C1`: the melting point stood at 211 °C. The same measure for `O=c1[nH]c(=O)n(C2OC(CBr)C(O)C2F)cc1C=CBr` (centres undefined): 223 °C.

On to `COC(=O)Cc1ccc(O)c(C23CC4CC(CC(C4)C2)C3)c1`, for which the melting point is 185 to 186 °C.

On to `C[C@@H](c1ccc(-c2c[nH]nn2)cc1)[C@](O)(Cn1cncn1)c1ccc(F)cc1F`, for which the melting point stood at 121 °C. The value for `COC(=O)c1cccc2c(C(=O)c3ccccc3)c(C)oc12` was 70 to 72 °C; that for `CCOC(=O)c1c(N)sc2c1CCN(CCCc1ccccc1)C2` was 108 to 110 °C; that for `O=S(=O)(c1ccc(/C=C/c2nc(COc3ccc(CCCCn4ccnn4)cc3)co2)cc1)C(F)(F)F` was 133 to 135 °C. The value for `CC(C)(C)Sc1c(C#N)nn(-c2c(Cl)cc(C(F)(F)F)cc2Cl)c1N` was 196 to 198 °C. The value for `COC(=O)c1cc(OC)c(OC)cc1OC` was 91.5 to 92.5 °C.
